Laboratory results as given in patent publication US7109186B2 (Bristol-Myers Squibb Company, priority 2002, dated 2006).

Target: T1, HIV-integrase (Human immunodeficiency virus type 1 group M subtype B, UniProt P04585)
T1 construct: 0.26 ng of recombinant integrase was incubated with the beads for 90 min at 37 C
Assay: HIV integrase SPA integration assay (biotin-labeled substrate DNA on streptavidin SPA beads, P33-labeled target DNA)
Type: biochemical
Settings: percent inhibition of HIV-integrase in the presence of 20 μM of compound
Description: For each reaction, 5 pmole of biotin labeled substrate DNA was bound to 100 ug of Streptavidin coated PVT SPA beads (Amersham Pharmacia Biotech). 0.26 ng of recombinant integrase was incubated with the beads for 90 min at 37 C. Unbound enzyme was removed by washing the complex followed by addition of inhibitors and 0.1 fmol of P33 labeled target DNA. Reaction was stopped by adding EDTA to a final concentration of 10 mM. Samples were counted in TopCountNXT (Packard) and the CPM was used as a measure of integration. Reaction condition was as described in A. Engelman and R. Craigie, J. Virol. 69, 5908–5911 (1995). The sequences of substrate and target DNA were described in Nucleic Acid Research 22, 1121–1122 (1994).

Structure (SMILES) | inhibition at 20 µM [%]
CN1CC(C(=O)N(C)Cc2ccc(F)cc2)=C(O)C1=O [Compound 1, 4-Hydroxy-1-methyl-5-oxo-2,5-dihydro-1H-pyrrole-3-carboxylic acid (4-fluoro-benzyl)-methyl amide] | 99.9
CN(Cc1ccc(F)cc1)C(=O)C1=C(O)C(=O)N(CCc2ccc(Cl)cc2)C1 [Compound 2, 1-[2-(4-Chloro-phenyl)ethyl]-4-hydroxy-5-oxo-2,5-dihydro-1H-pyrrole-3-carboxylic acid (4-fluoro-benzyl)-methyl amide] | 99.9
CN(Cc1ccc(F)cc1)C(=O)C1=C(O)C(=O)N(CCc2ccccc2Cl)C1 [Compound 3, 1-[2-(Chloro-phenyl)-ethyl]-4-hydroxy-5-oxo-2,5-dihydro-1H-pyrrole-3-carboxylic acid (4-fluoro-benzyl)-methyl amide] | 99.9
CN(Cc1ccc(F)cc1)C(=O)C1=C(O)C(=O)N(CCc2cccs2)C1 [Compound 4, 4-Hydroxy-5-oxo-1-(2-thiophen-2-yl-ethyl)-2,5-dihydro-1H-pyrrole-3-carboxylic acid (4-fluoro-benzyl)-methyl-amide] | 99.9
CN(Cc1ccc(F)cc1)C(=O)C1=C(O)C(=O)N(CCc2ccccc2F)C1 [Compound 5, 1-[2-(2-Fluoro-phenyl)-ethyl]-4-hydroxy-5-oxo-2,5-dihydro-1H-pyrrole-3-carboxylic acid (4-fluoro-benzyl)-methyl-amide] | 99.8
CN(Cc1ccc(F)cc1)C(=O)C1=C(O)C(=O)N(CCc2ccc(Cl)cc2Cl)C1 [Compound 6, 1-[2-(2,4-Dichloro-phenyl)-ethyl]-4-hydroxy-5-oxo-2,5-dihydro-1H-pyrrole-3-carboxylic acid (4-fluoro-benzyl)-methyl-amide] | 99.9
CN(Cc1ccc(F)cc1)C(=O)C1=C(O)C(=O)N(CCc2ccncc2)C1 [Compound 7, 4-Hydroxy-5-oxo-1-(2-pyridin-4-yl-ethyl)-2,5-dihydro-1H-pyrrole-3-carboxylic acid (4-fluoro-benzyl)-methyl-amide] | 99.9
CN(Cc1ccc(F)cc1)C(=O)C1=C(O)C(=O)N(CCc2ccccc2)C1 [Compound 8, 4-Hydroxy-5-oxo-1-phenethyl-2,5-dihydro-1H-pyrrole-3-carboxylic acid (4-fluoro-benzyl)-methyl-amide] | 99.9
CN(Cc1ccc(F)cc1)C(=O)C1=C(O)C(=O)N(CCc2ccc(F)cc2)C1 [Compound 9, 1-[2-(4-Fluoro-phenyl)-ethyl]-4-hydroxy-5-oxo-2,5-dihydro-1H-pyrrole-3-carboxylic acid (4-fluoro-benzyl)-methyl amide] | 99.9
CN(Cc1ccc(F)cc1)C(=O)C1=C(O)C(=O)N(CCCc2ccccc2)C1 [Compound 10, 4-Hydroxy-5-oxo-1-(3-phenyl-propyl)-2,5-dihydro-1H-pyrrole-3-carboxylic acid (4-fluoro-benzyl)-methyl-amide] | 99.9
CC(C)N1CC(C(=O)N(C)Cc2ccc(F)cc2)=C(O)C1=O [Compound 11, 4-Hydroxy-1-isopropyl-5-oxo-2,5-dihydro-1H-pyrrole-3-carboxylic acid (4-fluoro-benzyl)-methyl-amide] | 99.9
CN1CC(C(=O)N(C)Cc2ccc(Cl)c(Cl)c2)=C(O)C1=O [Compound 12, 4-Hydroxy-1-methyl-5-oxo-2,5-dihydro-1H-pyrrole-3-carboxylic acid (3,4-dichloro-benzyl)-methyl amide] | 99.9
CN(Cc1ccc(Cl)c(Cl)c1)C(=O)C1=C(O)C(=O)N(CCN2CCOCC2)C1 [Compound 13, 4-Hydroxy-1-(2-morpholin-4-yl-ethyl)-5-oxo-2,5-dihydro-1H-pyrrole-3-carboxylic acid (3,4-dichloro-benzyl)-methyl-amide] | 99.9
CNCCN1CC(C(=O)N(C)Cc2ccc(Cl)c(Cl)c2)=C(O)C1=O [Compound 15, 4-Hydroxy-1-(2-methylamino-ethyl)-5-oxo-2,5-dihydro-1H-pyrrole-3-carboxylic acid (3,4-dichloro-benzyl)-methyl-amide] | 99.7
CN(Cc1ccc(Cl)c(Cl)c1)C(=O)C1=C(O)C(=O)N(CC(C)(C)C)C1 [Compound 16, 1-(2,2-Dimethyl-propyl)-4-hydroxy-5-oxo-2,5-dihydro-1H-pyrrole-3-carboxylic acid (3,4-dichloro-benzyl)-methyl-amide] | 99.9
CN(Cc1ccc(Cl)c(Cl)c1)C(=O)C1=C(O)C(=O)N(CCc2ccc(S(N)(=O)=O)cc2)C1 [Compound 17, 4-Hydroxy-5-oxo-1-[2-(4-sulfamoyl-phenyl)-ethyl]-2,5-dihydro-1H-pyrrole-3-carboxylic acid (3,4-dichloro-benzyl)-methyl-amide] | 99.9
CN(Cc1ccc(Cl)c(Cl)c1)C(=O)C1=C(O)C(=O)N(Cc2ccc(Cl)c(Cl)c2)C1 [Compound 19, 1-(3,4-Dichloro-benzyl)-4-hydroxy-5-oxo-2,5-dihydro-1H-pyrrole-3-carboxylic acid (3,4-dichloro-benzyl)-methyl-amide] | 99.9

Structure (SMILES) | inhibition at 20 µM [%]
CN(Cc1ccc(Cl)c(Cl)c1)C(=O)C1=C(O)C(=O)N(Cc2ccncc2)C1 [Compound 21] | 99.9
CCN1CCCC1CN1CC(C(=O)N(C)Cc2ccc(Cl)c(Cl)c2)=C(O)C1=O (stereo not shown) [Compound 22, 1-(1-Ethyl-pyrrolidin-2-ylmethyl)-4-hydroxy-5-oxo-2,5-dihydro-3-carboxylic acid (3,4-dichloro-benzyl)-methyl-amide] | 99.9
CN(Cc1ccc(Cl)c(Cl)c1)C(=O)C1=C(O)C(=O)N(CCP(=O)(O)O)C1 [Compound 23, (2-{4-[(3,4-Dichloro-benzyl)-methyl-carbamoyl]-3-hydroxy-2-oxo-2,5-dihydro-pyrrol-1-yl}-ethyl)-phosphonic acid] | 99.9
CCOP(=O)(CCN1CC(C(=O)N(C)Cc2ccc(Cl)c(Cl)c2)=C(O)C1=O)OCC [Compound 23-A, (2-[4-[(3,4-Dichloro-benzyl)-methyl-carbamoyl]-3-hydroxy-2-oxo-2,5-dihydro-pyrrol-1-yl]-ethyl)-phosphonic acid diethyl ester] | 99.9
CN(Cc1ccc(Cl)c(Cl)c1)C(=O)C1=C(O)C(=O)N(CCCC(=O)O)C1 [Compound 24, 4-{4-[(3,4-Dichloro-benzyl)-methyl-carbamoyl]-3-hydroxy-2-oxo-2,5-dihydro-pyrrol-1-yl}-butyric acid] | 99.9
CN(Cc1ccc(Cl)c(Cl)c1)C(=O)C1=C(O)C(=O)N(C(CC(N)=O)C(=O)O)C1 (stereo not shown) [Compound 25, 2-{4-[(3,4-Dichloro-benzyl)-methyl-carbamoyl]-3-hydroxy-2-oxo-2,5-dihydro-pyrrol-1-yl}-succinamic acid] | 99.9
CN(Cc1ccc(Cl)c(Cl)c1)C(=O)C1=C(O)C(=O)N(CCN2CCCCC2)C1 [Compound 26, 4-Hydroxy-5-oxo-1-(2-piperidin-1-yl-ethyl)-2,5-dihydro-1H-pyrrole-3-carboxylic acid (3,4-dichloro-benzyl)-methyl-amide] | 99.9
CC(=O)NCCN1CC(C(=O)N(C)Cc2ccc(Cl)c(Cl)c2)=C(O)C1=O [Compound 27] | 99.9
CN(Cc1ccc(Cl)c(Cl)c1)C(=O)C1=C(O)C(=O)N(CCCCCCC(=O)O)C1 [Compound 28, 7-{4-[(3,4-dichloro-benzyl)-methyl-carbamoyl]-3-hydroxy-2-oxo-2,5-dihydro-pyrrol-1-yl}-heptanoic acid] | 99.9
CN(Cc1ccc(Cl)c(Cl)c1)C(=O)C1=C(O)C(=O)N(CCC(=O)NC(Cc2cncn2C)C(=O)O)C1 (stereo not shown) [Compound 29] | 99.9
CN(Cc1ccc(Cl)c(Cl)c1)C(=O)C1=C(O)C(=O)N(CCCn2ccnc2)C1 [Compound 30, 4-Hydroxy-1-(3-imidazol-1-yl-propyl)-5-oxo-2,5-dihydro-1H-pyrrole-3-carboxylic acid (3,4-dichloro-benzyl)-methyl-amide] | 99.9
CN(Cc1ccc(Cl)c(Cl)c1)C(=O)C1=C(O)C(=O)N(Cc2cccs2)C1 [Compound 31] | 99.9
CN1CCN(CCN2CC(C(=O)N(C)Cc3ccc(Cl)c(Cl)c3)=C(O)C2=O)CC1 [Compound 32, 4-Hydroxy-1-[2-(4-methyl-piperazin-1-yl)-ethyl]-5-oxo-2,5-dihydro-1H-pyrrole-3-carboxylic acid (3,4-dichloro-benzyl)-methyl-amide] | 99.9
COC(=O)CCCN1CC(C(=O)N(C)Cc2ccc(Cl)c(Cl)c2)=C(O)C1=O [Compound 33] | 99.9
COC(=O)CCN1CC(C(=O)N(C)Cc2ccc(Cl)c(Cl)c2)=C(O)C1=O [Compound 34, 3-{4-[(3,4-Dichloro-benzyl)-methyl-carbamoyl]-3-hydroxy-2-oxo-2,5-dihydro-pyrrol-1-yl}-propionic acid methyl ester] | 99.9
CN(Cc1ccc(Cl)c(Cl)c1)C(=O)C1=C(O)C(=O)N(CC(=O)NCC(=O)NCCC(=O)NCC(=O)O)C1 [Compound 35, {3-[2-(2-{4-[(3,4-Dichloro-benzyl)-methyl-carbamoyl]-3-hydroxy-2-oxo-2,5-dihydro-pyrrol-1-yl}-acetylamino)-acetylamino]-propionylamino}-acetic acid] | 99.9
CN(Cc1ccc(Cl)c(Cl)c1)C(=O)C1=C(O)C(=O)N(Cc2ccc(C(=O)O)cc2)C1 [Compound 36, 4-{4-[(3,4-Dichloro-benzyl)-methyl-carbamoyl]-3-hydroxy-2: oxo-2,5-dihydro-pyrrol-1-ylmethyl}-benzoic acid] | 92
